Legend:
[1] = system: normal NK cells expanded with K562-aAPC; experiment: percent inhibition of viability; higher = more inhibition; settings: 72 h, IL-2 2.5 ng/mL
Method: (§1)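 Drug sensitivity and resistance testing on K562-aAPC-expanded normal NK cells: 5 concentrations (10-fold steps over a 10,000-fold range), 72 h at 37 °C, viability by CellTiter-Glo normalised to DMSO and benzethonium chloride controls; DSS from the fitted curve.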

DERL-7 (IL-2 2.5 ng/mL) [2] = experiment: as above; settings: 72 h
IMC-1 (IL-2 20 ng/mL) [3] = experiment: as above; settings: 72 h
KAI3 (IL-2 2.5 ng/mL) [4] = experiment: as above; settings: 72 h
KHYG-1 (IL-2 2.5 ng/mL) [5] = experiment: as above; settings: 72 h
NK-92 (IL-2 2.5 ng/mL) [6] = experiment: as above; settings: 72 h
NK-YS (IL-2 2.5 ng/mL) [7] = experiment: as above; settings: 72 h
NKL (IL-2 2.5 ng/mL) [8] = experiment: as above; settings: 72 h
SNK-6 (IL-2 2.5 ng/mL) [9] = experiment: as above; settings: 72 h
YT (IL-2 2.5 ng/mL) [10] = experiment: as above; settings: 72 h
[11] = system: normal primary NK cells, pool 1 (3 donors) (IL-2 2.5 ng/mL); experiment: as above; settings: 72 h
[12] = system: normal primary NK cells, pool 1 (3 donors), resting (IL-2 0 ng/mL); experiment: as above; settings: 72 h
[13] = system: normal primary NK cells, pool 2 (3 donors) (IL-2 2.5 ng/mL); experiment: as above; settings: 72 h
[14] = system: normal primary NK cells, pool 3 (3 donors) (IL-2 2.5 ng/mL); experiment: as above; settings: 72 h
[15] = system: normal NK cells expanded with K562-aAPC; experiment: drug sensitivity score (DSS) (DSS units); higher = more sensitive; extreme values may be limits of the assay; settings: 72 h; IL-2 2.5 ng/mL
Method: as §1

DERL-7 (IL-2 2.5 ng/mL) [16] = experiment: as above; settings: 72 h
IMC-1 (IL-2 20 ng/mL) [17] = experiment: as above; settings: 72 h
KAI3 (IL-2 2.5 ng/mL) [18] = experiment: as above; settings: 72 h
KHYG-1 (IL-2 2.5 ng/mL) [19] = experiment: as above; settings: 72 h
NK-92 (IL-2 2.5 ng/mL) [20] = experiment: as above; settings: 72 h
NK-YS (IL-2 2.5 ng/mL) [21] = experiment: as above; settings: 72 h
NKL (IL-2 2.5 ng/mL) [22] = experiment: as above; settings: 72 h
SNK-6 (IL-2 2.5 ng/mL) [23] = experiment: as above; settings: 72 h
YT (IL-2 2.5 ng/mL) [24] = experiment: as above; settings: 72 h
[25] = system: normal primary NK cells, pool 1 (3 donors) (IL-2 2.5 ng/mL); experiment: as above; settings: 72 h
[26] = system: normal primary NK cells, pool 1 (3 donors), resting (IL-2 0 ng/mL); experiment: as above; settings: 72 h
[27] = system: normal primary NK cells, pool 2 (3 donors) (IL-2 2.5 ng/mL); experiment: as above; settings: 72 h
[28] = system: normal primary NK cells, pool 3 (3 donors) (IL-2 2.5 ng/mL); experiment: as above; settings: 72 h

O=C(Cc1ccc(-c2ccc(OCCN3CCOCC3)cc2)cn1)NCc1ccccc1 [KX2-391] (max concentration tested 10000 nM)
percent inhibition of viability [%]
Settings	1 nM	10 nM	100 nM	1000 nM	10000 nM
DERL-7 (IL-2 2.5 ng/mL) [2]	-1.42	5.02	99.3	99.9	98.9
IMC-1 (IL-2 20 ng/mL) [3]	-2.07	-3.69	99.1	100	100
KAI3 (IL-2 2.5 ng/mL) [4]	-3.67	25.5	55.4	76.7	70.3
KHYG-1 (IL-2 2.5 ng/mL) [5]	-5.79	3.13	98.5	107	98.1
NK-92 (IL-2 2.5 ng/mL) [6]	2.97	44	92.2	104	96.8
NK-YS (IL-2 2.5 ng/mL) [7]	-1.95	18.5	69.3	80.8	81.6
NKL (IL-2 2.5 ng/mL) [8]	-12.7	5.97	94.5	96.4	89
SNK-6 (IL-2 2.5 ng/mL) [9]	27.9	54	79.7	91.6	95.2
YT (IL-2 2.5 ng/mL) [10]	-2.25	14.7	95.6	102	95.2
[1]	-2.89	-0.99	57	55.9	57.5
[11]	-14.5	-16.4	1.64	8.22	36.6
[12]	-13.2	-19.8	7.03	7.66	29.1
[13]	-6.2	-11.1	-5.76	6.08	22.6
[14]	-15.5	-9.53	-0.96	0.59	6.59

Settings	drug sensitivity score
DERL-7 (IL-2 2.5 ng/mL) [16]	31.1
IMC-1 (IL-2 20 ng/mL) [17]	30
KAI3 (IL-2 2.5 ng/mL) [18]	23
KHYG-1 (IL-2 2.5 ng/mL) [19]	30.7
NK-92 (IL-2 2.5 ng/mL) [20]	34.8
NK-YS (IL-2 2.5 ng/mL) [21]	25.4
NKL (IL-2 2.5 ng/mL) [22]	30.1
SNK-6 (IL-2 2.5 ng/mL) [23]	34.7
YT (IL-2 2.5 ng/mL) [24]	32
[15]	17.9
[25]	3.06
[26]	2.04
[27]	1.59
[28]	0

CCn1c(=O)c(-c2cc[nH]n2)cc2c(C)nc(N)nc21 [Voxtalisib] (max concentration tested 10000 nM)
percent inhibition of viability [%]
Settings	1 nM	10 nM	100 nM	1000 nM	10000 nM
DERL-7 (IL-2 2.5 ng/mL) [2]	5.41	4.21	13.1	64	90.5
IMC-1 (IL-2 20 ng/mL) [3]	-10.6	-2.45	-10.8	-9.7	16.3
KAI3 (IL-2 2.5 ng/mL) [4]	-4.78	-4.19	6.21	42.3	75.8
KHYG-1 (IL-2 2.5 ng/mL) [5]	-9	-5.41	-5.59	17.8	79.4
NK-92 (IL-2 2.5 ng/mL) [6]	-8.65	11.8	10.3	47.6	82.8
NK-YS (IL-2 2.5 ng/mL) [7]	-5.07	0.15	3.01	23.8	69.5
NKL (IL-2 2.5 ng/mL) [8]	-8.64	-12.9	-1.2	46.7	80.6
SNK-6 (IL-2 2.5 ng/mL) [9]	-15.8	-23.8	-25.5	-0.25	72.2
YT (IL-2 2.5 ng/mL) [10]	-4.53	-3.54	0.98	38.7	88.6
[1]	0.41	-5.61	9.15	33.9	60.2
[11]	-5.05	2.34	10.6	28.2	49.9
[12]	-7.13	11.3	7.69	23	43.4
[13]	-10.4	2.91	12.1	20.6	40.3
[14]	-5.2	-0.71	13.1	17.8	35.1

Settings	drug sensitivity score
DERL-7 (IL-2 2.5 ng/mL) [16]	13.8
IMC-1 (IL-2 20 ng/mL) [17]	0.15
KAI3 (IL-2 2.5 ng/mL) [18]	9.29
KHYG-1 (IL-2 2.5 ng/mL) [19]	7.22
NK-92 (IL-2 2.5 ng/mL) [20]	10.7
NK-YS (IL-2 2.5 ng/mL) [21]	7.02
NKL (IL-2 2.5 ng/mL) [22]	10.1
SNK-6 (IL-2 2.5 ng/mL) [23]	3.96
YT (IL-2 2.5 ng/mL) [24]	9.92
[15]	7.48
[25]	6.3
[26]	5.05
[27]	4.74
[28]	4.03

C[C@]1(c2nc3c(C(N)=O)cccc3[nH]2)CCCN1 [Veliparib] (max concentration tested 10000 nM)
percent inhibition of viability [%]
Settings	1 nM	10 nM	100 nM	1000 nM	10000 nM
DERL-7 (IL-2 2.5 ng/mL) [2]	1.66	5.22	0.09	-2.95	25.1
IMC-1 (IL-2 20 ng/mL) [3]	1	0.9	0.37	0.91	1.79
KAI3 (IL-2 2.5 ng/mL) [4]	1.98	-0.92	-2.55	12.1	34.3
KHYG-1 (IL-2 2.5 ng/mL) [5]	-11.7	-8.12	-8.94	-3.41	12
NK-92 (IL-2 2.5 ng/mL) [6]	7.45	4.92	2.84	-4.04	22.9
NK-YS (IL-2 2.5 ng/mL) [7]	-6.78	-8.37	-8.01	-6.17	14.8
NKL (IL-2 2.5 ng/mL) [8]	-2.87	-3.94	-5.59	4.18	38.6
SNK-6 (IL-2 2.5 ng/mL) [9]	3.66	1.93	-13.1	-1.7	13.8
YT (IL-2 2.5 ng/mL) [10]	1.3	-1.34	0.84	-0.22	3.43
[1]	3.32	0.6	3.03	3.27	19.4
[11]	-7.43	1.5	2.84	7.25	50.4
[12]	-8.38	-4.44	2.95	-4.91	56.4
[13]	-7.51	-2.4	-4.92	-8.11	16.4
[14]	-3.03	-1.96	-0.62	-3.1	15.2

Settings	drug sensitivity score
DERL-7 (IL-2 2.5 ng/mL) [16]	0.78
IMC-1 (IL-2 20 ng/mL) [17]	0
KAI3 (IL-2 2.5 ng/mL) [18]	3.29
KHYG-1 (IL-2 2.5 ng/mL) [19]	0.01
NK-92 (IL-2 2.5 ng/mL) [20]	0.6
NK-YS (IL-2 2.5 ng/mL) [21]	0.1
NKL (IL-2 2.5 ng/mL) [22]	2.57
SNK-6 (IL-2 2.5 ng/mL) [23]	0.1
YT (IL-2 2.5 ng/mL) [24]	0
[15]	0.98
[25]	3.89
[26]	2.67
[27]	0.16
[28]	0.16

Reference: the supplement of paper PMC5908809
